# Data as given in ChEMBL document CHEMBL1201862, “PubChem BioAssay data set” (2004).
#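 96-well plates; 48 h exposure; 5 concentrations. Endpoints by linear interpolation between flanking doses. Not reached: highest tested concentration assigned. GI50 = concentration required for 50% inhibition of growth.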 The source made the active and inactive calls. Cut-off read from the data, not from the text of the source: active = GI50 up to about 1.1 µM and inactive = higher.
# Assays:
# Test in all cases: NCI anticancer screen, dose series, 48 h
# [1] = test system: A549
# [2] = test system: CCRF-CEM
# [3] = test system: DU-145
# [4] = test system: HOP-62
# [5] = test system: KM12
# [6] = test system: MDA-MB-231
# [7] = test system: MDA-MB-435
# [8] = test system: MDA-N
# [9] = test system: NCI-H23
# [10] = test system: NCI-H460
# [11] = test system: NCI/ADR-RES
# [12] = test system: OVCAR-3
# [13] = test system: PC-3
# [14] = test system: SF-295
# [15] = test system: T47D
# [16] = test system: U-251
# [17] = test system: UACC-62
# [18] = test system: LOX IMVI
# [19] = test system: SF-539
# [20] = test system: HOP-92
Structure (SMILES),GI50 [1],GI50 [2],GI50 [3],GI50 [4],GI50 [5],GI50 [6],GI50 [7],GI50 [8],GI50 [9],GI50 [10],GI50 [11],GI50 [12],GI50 [13],GI50 [14],GI50 [15],GI50 [16],GI50 [17],GI50 [18],GI50 [19],GI50 [20]
CCCCSC1=N/C(=C\c2ccco2)C(=O)N1,43.6 µM (inactive),24.2 µM (inactive),67.8 µM (inactive),> 100 µM (inactive),37.6 µM (inactive),99.8 µM (inactive),36.7 µM (inactive),42.4 µM (inactive),36.3 µM (inactive),39.5 µM (inactive),31.9 µM (inactive),48.4 µM (inactive),46.1 µM (inactive),45.5 µM (inactive),16.5 µM (inactive),74.6 µM (inactive),42.1 µM (inactive),,,
COC(=O)c1ccccc1/C=C1\Cc2cc3c(cc2C1=O)CCC3,> 100 µM (inactive),,> 100 µM (inactive),29.6 µM (inactive),> 100 µM (inactive),> 100 µM (inactive),3.89 µM (inactive),3.78 µM (inactive),> 100 µM (inactive),> 100 µM (inactive),> 100 µM (inactive),> 100 µM (inactive),8.51 µM (inactive),43.5 µM (inactive),> 100 µM (inactive),43 µM (inactive),32.1 µM (inactive),> 100 µM (inactive),> 100 µM (inactive),
O=[N+]([O-])c1ccc(CSc2nn(Cc3ccc([N+](=O)[O-])cc3)cc3ncnc2-3)cc1,39 µM (inactive),> 10 µM (inactive),,31.8 µM (inactive),30.4 µM (inactive),34.4 µM (inactive),21.1 µM (inactive),33 µM (inactive),26.4 µM (inactive),,44 µM (inactive),56.2 µM (inactive),35.5 µM (inactive),45.3 µM (inactive),44.6 µM (inactive),> 10 µM (inactive),17.5 µM (inactive),33.9 µM (inactive),32 µM (inactive),0.361 µM (active)
COC(=O)N1N=C(c2ccccc2)C1c1ccccc1 (stereo not drawn),31 µM (inactive),31.9 µM (inactive),49.2 µM (inactive),,47.4 µM (inactive),24.6 µM (inactive),33.7 µM (inactive),31.1 µM (inactive),24.8 µM (inactive),30.8 µM (inactive),23.2 µM (inactive),37.9 µM (inactive),26.9 µM (inactive),,25.4 µM (inactive),42.7 µM (inactive),22 µM (inactive),26.2 µM (inactive),22.9 µM (inactive),
CC1(C)OC(=O)C(C)(C)C(=O)O1,> 100 µM (inactive),> 100 µM (inactive),> 100 µM (inactive),> 100 µM (inactive),> 100 µM (inactive),> 100 µM (inactive),,> 100 µM (inactive),> 100 µM (inactive),> 100 µM (inactive),> 100 µM (inactive),,> 100 µM (inactive),> 100 µM (inactive),> 100 µM (inactive),> 100 µM (inactive),> 100 µM (inactive),> 100 µM (inactive),> 100 µM (inactive),
Cc1cn(CC2(CO)CCC2)c(=O)[nH]c1=O,> 100 µM (inactive),> 100 µM (inactive),> 100 µM (inactive),> 100 µM (inactive),> 100 µM (inactive),> 100 µM (inactive),> 100 µM (inactive),> 100 µM (inactive),> 100 µM (inactive),> 100 µM (inactive),> 100 µM (inactive),> 100 µM (inactive),> 100 µM (inactive),> 100 µM (inactive),> 100 µM (inactive),> 100 µM (inactive),> 100 µM (inactive),> 100 µM (inactive),> 100 µM (inactive),
CCOC(=O)C1=NN(c2ccc([N+](=O)[O-])cc2)[C@@]2(C)C[C@]3(c4ccccc4)N(c4ccc([N+](=O)[O-])cc4)N=C(C(=O)OCC)N3c3ccccc3N12,> 100 µM (inactive),> 100 µM (inactive),> 100 µM (inactive),> 100 µM (inactive),> 100 µM (inactive),4.51 µM (inactive),> 100 µM (inactive),> 100 µM (inactive),> 100 µM (inactive),,> 100 µM (inactive),> 100 µM (inactive),> 100 µM (inactive),> 100 µM (inactive),> 100 µM (inactive),> 100 µM (inactive),> 100 µM (inactive),> 100 µM (inactive),> 100 µM (inactive),
CC(=O)OCC(=O)[C@@]12OC(C)(C)O[C@@H]1C[C@H]1[C@@H]3CC=C4C[C@@H](O)CC[C@]4(C)[C@H]3CC[C@@]12C,> 100 µM (inactive),> 100 µM (inactive),49.2 µM (inactive),32.2 µM (inactive),> 100 µM (inactive),61.5 µM (inactive),> 100 µM (inactive),> 100 µM (inactive),57.7 µM (inactive),,66.5 µM (inactive),> 100 µM (inactive),> 100 µM (inactive),33.1 µM (inactive),35.5 µM (inactive),58.6 µM (inactive),> 100 µM (inactive),> 100 µM (inactive),30.8 µM (inactive),
CCc1n[nH]c(=O)n1-c1ccc2ccccc2c1,> 100 µM (inactive),> 100 µM (inactive),> 100 µM (inactive),> 100 µM (inactive),> 100 µM (inactive),> 100 µM (inactive),> 100 µM (inactive),> 100 µM (inactive),> 100 µM (inactive),> 100 µM (inactive),> 100 µM (inactive),> 100 µM (inactive),,> 100 µM (inactive),> 100 µM (inactive),> 100 µM (inactive),> 100 µM (inactive),> 100 µM (inactive),> 100 µM (inactive),> 100 µM (inactive)
CC(=O)OCCC1c2ccccc2-n2nc(-c3ccccc3)c(O)c21 (stereo not drawn),17.7 µM (inactive),11.6 µM (inactive),17.7 µM (inactive),15.2 µM (inactive),16.6 µM (inactive),19.3 µM (inactive),16.9 µM (inactive),17.5 µM (inactive),16.6 µM (inactive),14.5 µM (inactive),14.8 µM (inactive),21.3 µM (inactive),17.3 µM (inactive),20 µM (inactive),,13.3 µM (inactive),,13.7 µM (inactive),21.6 µM (inactive),11.9 µM (inactive)
COc1cc(C(c2ccccc2)N2C(=O)CC[C@H]2C(=O)O)cc(OC)c1OC (stereo partly drawn),> 100 µM (inactive),> 100 µM (inactive),> 100 µM (inactive),> 100 µM (inactive),> 100 µM (inactive),,> 100 µM (inactive),> 100 µM (inactive),> 100 µM (inactive),> 100 µM (inactive),> 100 µM (inactive),> 100 µM (inactive),> 100 µM (inactive),> 100 µM (inactive),> 100 µM (inactive),> 100 µM (inactive),> 100 µM (inactive),> 100 µM (inactive),> 100 µM (inactive),> 100 µM (inactive)
